# Experimental data as given in patent US10597388B2, “Pyridazinone herbicides” (FMC CORPORATION, priority 2014, dated 2020).
# Legend:
# Test in all cases: Test D controlled growth environment herbicide test, pre- and postemergence
# Format in all cases: in vivo
# [1] = test system: chickweed (common chickweed, Stellaria media)
# Method in brief: (§1)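 Species sown in silt loam and sprayed preemergence, or grown in peat-based medium to 2–18 cm (1- to 4-leaf stage) and sprayed postemergence, with compounds in non-phytotoxic solvent plus surfactant. Visual injury scored versus controls after 14–21 d in a controlled environment, 0 (no effect) to 100 (complete control).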
# [2] = test system: canarygrass (Phalaris minor)
# Method in brief: as §1
# [3] = test system: radish, wild (wild radish, Raphanus raphanistrum)
# Method in brief: as §1
# [4] = test system: field poppy (Papaver rhoeas)
# Method in brief: as §1
# [5] = test system: wheat, winter (winter wheat, Triticum aestivum)
# Method in brief: as §1
# [6] = test system: barley, spring (spring barley, Hordeum vulgare)
# Method in brief: as §1
# [7] = test system: lambsquarters (Chenopodium album)
# Method in brief: as §1
# [8] = test system: barley, winter (winter barley, Hordeum vulgare)
# Method in brief: as §1
# [9] = test system: wheat, spring (spring wheat, Triticum aestivum)
# Method in brief: as §1
# [10] = test system: field violet (Viola arvensis)
# Method in brief: as §1
# [11] = test system: oat, wild (wild oat, Avena fatua)
# Method in brief: as §1
# [12] = test system: bluegrass (annual bluegrass, Poa annua)
# Method in brief: as §1
# [13] = Postemergence, 31 g ai/ha, scale 0 to 100 (0 no effect, 100 complete control)
# [14] = Postemergence, 125 g ai/ha, visual rating on scale 0 (no effect) to 100 (complete control), 14 to 21 d
# [15] = Postemergence, 250 g ai/ha, scale 0 to 100 (0 no effect, 100 complete control)
# [16] = Preemergence, 62 g ai/ha, scale 0 to 100 (0 no effect, 100 complete control)
# [17] = Preemergence, 125 g ai/ha, scale 0 to 100 (0 no effect, 100 complete control)
# [18] = Preemergence, 250 g ai/ha, scale 0 to 100, 0 no effect, 100 complete control
# [19] = postemergence, 62 g ai/ha, scale 0 to 100, 0 no effect, 100 complete control
compound,measurement,setting,value
"Cc1nn(C)c(=O)c(-c2cccc3ccccc23)c1O [Compound 11, 5-hydroxy-2,6-dimethyl-4-(1-naphthalenyl)-3(2H)-pyridazinone]",Chickweed plant response rating,[1]; [13],45
same,"Plant response rating, Chickweed",[1]; [14],80
same,"Plant response rating, Chickweed",[1]; [15],100
same,"Plant response rating (scale of 0 to 100), Chickweed","[1]; Preemergence, 31 g ai/ha",20
same,"Plant response rating, Chickweed",[1]; [16],100
same,"Plant response rating, Chickweed",[1]; [17],100
same,"Plant response rating, Chickweed",[1]; [18],100
same,"Plant response rating, Chickweed",[1]; [19],90
same,Canarygrass plant response rating,[2]; [13],10
same,"Plant response rating, Canarygrass",[2]; [14],30
same,"Plant response rating, Canarygrass",[2]; [15],55
same,"Plant response rating (scale of 0 to 100), Canarygrass","[2]; Preemergence, 31 g ai/ha",45
same,"Plant response rating, Canarygrass",[2]; [16],55
same,"Plant response rating, Canarygrass",[2]; [17],90
same,"Plant response rating, Canarygrass",[2]; [18],90
same,"Plant response rating, Canarygrass",[2]; [19],20
same,"Radish, Wild plant response rating",[3]; [13],50
same,"Plant response rating, Radish, Wild",[3]; [14],60
same,"Plant response rating, Radish, Wild",[3]; [15],85
same,"Plant response rating (scale of 0 to 100), Radish, Wild","[3]; Preemergence, 31 g ai/ha",10
same,"Plant response rating, Radish, Wild",[3]; [16],15
same,"Plant response rating, Radish, Wild",[3]; [17],20
same,"Plant response rating, Radish, Wild",[3]; [18],25
same,"Plant response rating, Radish, Wild",[3]; [19],30
same,Field Poppy plant response rating,[4]; [13],35
same,"Plant response rating, Field Poppy",[4]; [14],80
same,"Plant response rating, Field Poppy",[4]; [15],100
same,"Plant response rating (scale of 0 to 100), Field Poppy","[4]; Preemergence, 31 g ai/ha",75
same,"Plant response rating, Field Poppy",[4]; [16],75
same,"Plant response rating, Field Poppy",[4]; [17],100
same,"Plant response rating, Field Poppy",[4]; [18],100
same,"Plant response rating, Field Poppy",[4]; [19],85
same,"Wheat, Winter plant response rating",[5]; [13],10
same,"Plant response rating, Wheat, Winter",[5]; [14],15
same,"Plant response rating, Wheat, Winter",[5]; [15],25
same,"Plant response rating (scale of 0 to 100), Wheat, Winter","[5]; Preemergence, 31 g ai/ha",0
same,"Plant response rating, Wheat, Winter",[5]; [16],0
same,"Plant response rating, Wheat, Winter",[5]; [17],20
same,"Plant response rating, Wheat, Winter",[5]; [18],30
same,"Plant response rating, Wheat, Winter",[5]; [19],15
same,"Plant response rating, Barley, Spring",[6]; [13],0
same,"Plant response rating, Barley, Spring",[6]; [14],10
same,"Plant response rating, Barley, Spring",[6]; [15],10
same,"Plant response rating (scale of 0 to 100), Barley, Spring","[6]; Preemergence, 31 g ai/ha",5
same,"Plant response rating, Barley, Spring",[6]; [16],5
same,"Plant response rating, Barley, Spring",[6]; [17],10
same,"Barley, Spring plant response rating",[6]; [18],15
same,"Plant response rating, Barley, Spring",[6]; [19],0
same,Lambsquarters plant response rating,[7]; [13],60
same,"Plant response rating, Lambsquarters",[7]; [14],80
same,"Plant response rating, Lambsquarters",[7]; [15],85
same,"Plant response rating (scale of 0 to 100), Lambsquarters","[7]; Preemergence, 31 g ai/ha",25
same,"Plant response rating, Lambsquarters",[7]; [16],35
same,"Plant response rating, Lambsquarters",[7]; [17],100
same,"Plant response rating, Lambsquarters",[7]; [18],100
same,"Plant response rating, Lambsquarters",[7]; [19],80
same,"Plant response rating, Barley, Winter",[8]; [13],20
same,"Plant response rating, Barley, Winter",[8]; [14],25
same,"Plant response rating, Barley, Winter",[8]; [15],40
same,"Plant response rating (scale of 0 to 100), Barley, Winter","[8]; Preemergence, 31 g ai/ha",5
same,"Plant response rating, Barley, Winter",[8]; [16],5
same,"Plant response rating, Barley, Winter",[8]; [17],5
same,"Barley, Winter plant response rating",[8]; [18],20
same,"Plant response rating, Barley, Winter",[8]; [19],20
same,"Wheat, Spring plant response rating",[9]; [13],15
same,"Plant response rating, Wheat, Spring",[9]; [14],25
same,"Plant response rating, Wheat, Spring",[9]; [15],25
same,"Plant response rating (scale of 0 to 100), Wheat, Spring","[9]; Preemergence, 31 g ai/ha",5
same,"Plant response rating, Wheat, Spring",[9]; [16],15
same,"Plant response rating, Wheat, Spring",[9]; [17],25
same,"Plant response rating, Wheat, Spring",[9]; [18],35
same,"Plant response rating, Wheat, Spring",[9]; [19],15
same,Field Violet plant response rating,[10]; [13],65
same,"Plant response rating, Field Violet",[10]; [14],75
same,"Plant response rating, Field Violet",[10]; [15],90
same,"Plant response rating (scale of 0 to 100), Field Violet","[10]; Preemergence, 31 g ai/ha",85
same,"Plant response rating, Field Violet",[10]; [16],100
same,"Plant response rating, Field Violet",[10]; [17],100
same,"Plant response rating, Field Violet",[10]; [18],100
same,"Plant response rating, Field Violet",[10]; [19],65
same,"Oat, Wild plant response rating",[11]; [13],40
same,"Plant response rating, Oat, Wild",[11]; [14],85
same,"Plant response rating, Oat, Wild",[11]; [15],98
same,"Plant response rating (scale of 0 to 100), Oat, Wild","[11]; Preemergence, 31 g ai/ha",15
same,"Plant response rating, Oat, Wild",[11]; [16],70
same,"Plant response rating, Oat, Wild",[11]; [17],80
same,"Plant response rating, Oat, Wild",[11]; [18],85
same,"Plant response rating, Oat, Wild",[11]; [19],75
same,Bluegrass plant response rating,[12]; [13],5
same,"Plant response rating, Bluegrass",[12]; [14],5
same,"Plant response rating, Bluegrass",[12]; [15],15
same,"Plant response rating (scale of 0 to 100), Bluegrass","[12]; Preemergence, 31 g ai/ha",10
same,"Plant response rating, Bluegrass",[12]; [16],15
same,"Plant response rating, Bluegrass",[12]; [17],30
same,Bluegrass plant response rating,[12]; [18],55
same,"Plant response rating, Bluegrass",[12]; [19],5
